Results taken from US20160304970A1, “GENE BIOMARKER TO DIAGNOSE METASTIC LIVER CANCER AND METHODS FOR TARGETING THE SAME” (University of Southern California, priority 2015, published 2016).
“And” between values parts separate entries of the source, which are not always exact repeats. Equal values may be shown once.

Legend:
CD133 (+) Huh7 cells [1] = experiment: Anchorage-independent growth assay in soft agar; format: cell-based, human; details: retinoic acid 5 μg/ml, SAHA 0.5 μg/ml; 2 weeks
Protocol: Freshly sorted CD133 (+)/(−) Huh7 cells were mixed with 0.35% agarose containing 1000 cells per well in culture medium with retinoic acid (5 μg/ml), SAHA (0.5 μg/ml), or a combination of both. After 2 weeks, the colony numbers were counted.

TICs = experiment: Annexin V-PI staining and caspase activity analysis; format: cell-based; details: 6 and 12 hours; p<0.05
Protocol: Annexin V staining was performed according to the manufacturer's instructions (A35110, Invitrogen). In brief, after drug treatment, the cells were washed twice with ice-cold phosphate-buffered saline (PBS) and detached by trypsin/EDTA. The cells were then incubated with 5 μl of Annexin V-APC in a 100 μl of cell suspension at room temperature for 15 minutes. After incubation, the cells were mixed with propidium iodide solution and analyzed by flow cytometry.
The caspase activity assay was performed according to the manufacturer's instructions (G8090, G8200, and G8210, Promega). In brief, 10,000 cells were plated into each well of a 96-well plate. After the cells attached, the drugs (5 μg/ml of ATRA and 0.5 μg/ml of SAHA) were added to each well and incubated for 6, 12, 16, and 24 hours. After incubation, the Caspase-Glo® substrate reagent was added to each well followed by incubation for 30 minutes. After incubation, the luminescence signal was measured with a luminometer.

CD133 (+) Huh7 cells [2] = experiment: In vivo tumorigenicity, CD133 (+) Huh7 cells in NOG mice; parameters: species or system mouse
Protocol: The TUNEL staining was performed according to the manufacturer's instructions (4810-30-K, TREVIGEN). In brief, paraffin-embedded tumor sections from each group were de-paraffinized, re-hydrated, and washed twice in PBS. Samples were covered with Proteinase K solution for 30 minutes at room temperature and then washed two times in deionized water. Slides were immersed in quenching solution for 5 minutes at room temperature and then washed in PBS. Slides were incubated in TdT labeling buffer for 5 minutes, immersed with labeling reaction mix, and incubated at 37° C. for 1 hour in a humidity chamber. Samples were immersed in TdT stop buffer for 5 minutes and then washed twice in deionized water for 5 minutes each at room temperature. Samples were covered with Strep-HRP solution and incubated for 10 minutes at 37° C. and washed twice in PBS. Samples were incubated in DAB solution for 5 minutes and then washed in deionized water several times. The samples were counterstained with Methyl Green and mounted on slides for observation.
CD133 was conjugated to the terminal amine functionality on a polyethylene glycol block of polylactide-polyethylene glycol (PLA-PEG) as previously described (Swaminathan et al., 2013). PLGA (30 mg) was dissolved in 1 ml chloroform containing ATRA (6 mg). An oil-in-water emulsion was formed by emulsifying the polymer drug solution in 6 ml of 2.5% w/v aqueous PVA solution by sonication (Sonicator®XL, Misonix, N.Y.) for 5 minutes in an ice bath. The PLA-PEG-CD133 conjugate was dissolved in chloroform (8 mg/100 μl) and added to the oil-in-water emulsion with stirring. The emulsion was stirred for 18 hours at ambient conditions followed by 2 hours under vacuum to remove residual chloroform. Nanoparticles were recovered by ultracentrifugation (35,000 rpm for 35 minutes at 4° C.; OptimaTMLE-80K, Beckman, Palo Alta, Calif.) and washed three times with deionized water to remove excess PVA and unencapsulated drugs. The nanoparticle suspension was then lyophilized (Labconco, FreeZone 4.5, Kansas City, Mo.). Before injection, the lyophilized nanoparticles were re-dissolved in PBS and filtered with a 0.22 micron filter.
A half million freshly sorted CD133 (+) TICs were suspended in 100 μl of Matrigel™ (BD) and injected subcutaneously into NOD/Shi-scid/IL-2Rγ^null(NOG) mice, six mice per group. After the tumor volume reached 100 mm^3, animals received one intravenous dose of CD133-conjugated RA nanoparticle (5 μg/ml) and SAHA (0.5 μg/ml) daily. The animals were monitored regularly for tumor growth and survival every day. All animals work was performed according to national and international guidelines. Animal studies were based on a protocol approved by the Institutional Animal Care and Use Committee at University of Southern California.

patient-derived TICs = experiment: Subcutaneous xenograft of patient-derived TICs in NSG mice; format: in vivo, mouse; details: no SAHA, i.p.
Protocol: To establish prognostic biomarkers for the best combination chemotherapy, five different patient-derived TICs were tested for responses as xenografts in NSG mice for the best combination chemotherapy based on mutation/transcriptome subtypes. Anti-tumorigenic ability by ATRA+SAHA targeting TICs encapsulated with SAHA was validated (Table 3). […] As placebo treatment, solvent (DMSO) in an equal total volume (0.2 ml/mouse) was injected. Tumor growth kinetics was studied. Combination of ATRA with SAHA further inhibited the self-renewal abilities of TICs in vivo (FIG. 17E).

CD133 (+) Huh7 cells [3] = experiment: CD133 cell viability screening (luminescence, CellTiter-Glo); format: cell-based; details: Homo sapiens, Huh-7
Protocol: CD133(+) and CD133(−) Huh7 cells were freshly sorted using the MACS CD133 micro bead kit (Miltenyi Biotec, 130-050-801) and were seeded in 100 μl medium containing 5000 cells per well in a 96-well plate. Once the cells attached, the FDA approved drug library was added to each well to a final concentration of 20 μg/ml in duplicate. After incubation for 48 hours, the cell viability was determined by a luminescence assay. […] After 16 hours, 1 μl of a […] drug solution was individually added to the 96 wells, resulting in a 20 μg/ml final concentration for most compounds. After 48 hours, CellTiter-Glo® Reagent (G8233, Promega) was added and the luminescence signal was measured with an automated plate reader. The raw data for each well was background-corrected by DMSO control wells on the same plate.
Freshly sorted CD133 (+) Huh7 or mouse TICs were plated in 100 μl of medium containing 5000 cells per well in a 96-well plate. After 16 hours, 0.5 μl of a 2 μg/ml, 1 μg/ml, 0.2 μg/ml, 0.1 μg/ml, 0.02 μg/ml, or 0.01 μg/ml compound was added to each well in triplicate, resulting in a 10 μg/ml, 5 μg/ml, 1 μg/ml, 0.5 μg/ml, 0.1 μg/ml, and 0.05 μg/ml final concentration for most compounds, respectively. After 48 hours, the cells were either measured for cell viability by Cell-Glo® Reagent (Promega), or fixed with 1% PFA (paraformaldehyde) and stained with DAPI for high-throughput screening.

[4] = NOG mice, CD133 (+) Huh7 tumors

`CC1=C(/C=C/C(C)=C/C=C/C(C)=C/C(=O)O)C(C)(C)CCC1` [ATRA, all-trans retinoic acid] was tested, and the “reduction of colony numbers, anchorage independent growth in soft agar” value (CD133 (+) Huh7 cells [1]) was 50%, the “caspase-8 (extrinsic) and caspase-9 (intrinsic) pathway activity” value (TICs) was “induced both” and the tumor growth (CD133 (+) Huh7 cells [2]; ATRA 5 μg/ml in CD133 antibody-conjugated nanoparticles, SAHA 0.5 μg/ml, after 4 days of treatment) was “did not reduce or even promote tumor growth”. For the same compound, the “TUNEL staining of tumors” value (CD133 (+) Huh7 cells [2]; [4]) was “TUNEL-positive tumor cells”, the “tumor morphology, hematoxylin and eosin stained sections” value (CD133 (+) Huh7 cells [2]; [4]) was “necrotic regions” and the “anti-tumorigenic ability, % (animals/total)” value (patient-derived TICs; ATRA 100 mg/m^2/day) was 22% (7/32). For the same compound, the “anti-tumorigenic ability, % (animals/total)” value (patient-derived TICs; ATRA 150 mg/m^2/day) was 19% (6/32), the viability at 20 µg/mL (CD133 (+) Huh7 cells [3]; 20 μg/ml, 48 hours) was 41.4% and the IC50 (CD133 (+) Huh7 cells [3]; CD133 killing effect, FIG. 44A) was 4.06 µg/mL and 13.5 µM.
